Measurements reported in ChEMBL document CHEMBL4043309, “Computer-Aided Discovery and Characterization of Novel Ebola Virus Inhibitors” (J Med Chem, 2018).
Active and inactive are the calls of the source. No cut-off for these calls is given here.

Key:
cells = assay type: cell-based, Ebolavirus; settings: Orthoebolavirus, HeLa, 4.5 h
in vitro [1] = settings: human, hela
in vitro [2] = settings: human, hela; remark: listed apart in the source
Ebolavirus = test: Antiviral activity against Ebolavirus Mayinga infected in African green monkey Vero E6 cells after 72 hrs by eGFP assay; assay type: functional; settings: Orthoebolavirus, Vero C1008, 72 h
[3] = target: Procathepsin L (Homo sapiens) (UniProt P07711); settings: at 10 µM
Procathepsin L (Homo sapiens), sequence (P07711 114-333 limits assumed): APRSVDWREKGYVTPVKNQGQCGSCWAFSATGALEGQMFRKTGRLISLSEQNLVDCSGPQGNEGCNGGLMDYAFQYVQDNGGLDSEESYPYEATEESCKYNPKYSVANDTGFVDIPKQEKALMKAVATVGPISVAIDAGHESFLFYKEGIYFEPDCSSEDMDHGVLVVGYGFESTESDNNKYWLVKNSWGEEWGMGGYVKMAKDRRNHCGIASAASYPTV

[4] = target: Cathepsin B (Homo sapiens) (UniProt P07858); test: Inhibition of recombinant cathepsin B (unknown origin) at 10 uM using Ac-RR-AFC as substrate preincubated for 29 mins followed by substrate addition by fluorescence-based assay

Question: Which results are given for `COc1ccc2cc1Oc1ccc(cc1)C[C@H]1c3cc(c(OC)cc3CCN1C)Oc1c(OC)c(OC)cc3c1[C@H](C2)N(C)CC3` [FANCHININ]?
Answer: IC50 (cells): 2.16 µM; selectivity ratio (in vitro [1]): 22; selectivity ratio (in vitro [2]): 22

Question: Which results are given for `COc1cc2c(Oc3ccc4[nH]c(C)cc4c3F)ncnc2cc1OCCCN1CCCC1` [CEDIRANIB]?
Answer: IC50 (cells): 7.67 µM; selectivity ratio (in vitro [1]): 65; selectivity ratio (in vitro [2]): 65

Question: For `COc1cc(Nc2c(C#N)cnc3cc(OCCCN4CCN(C)CC4)c(OC)cc23)c(Cl)cc1Cl` [BOSUTINIB], which IC50 (cells) is on record?
Answer: The IC50 was 3.85 µM.

Question: Which results are given for `CC[C@]1(O)C[C@@H]2CN(CCc3c([nH]c4ccccc34)[C@@](C(=O)OC)(c3cc4c(cc3OC)N(C)[C@H]3[C@@](O)(C(N)=O)[C@H](O)[C@]5(CC)C=CCN6CC[C@]43[C@@H]65)C2)C1` [VINDESINE]?
Answer: IC50 (cells): 0.272 µM; selectivity ratio (in vitro [1]): 1840; selectivity ratio (in vitro [2]): 1840

Question: What does the source list for `Nc1ncnc2c1c(-c1cccc(OCc3ccccc3)c1)cn2[C@H]1C[C@H](CN2CCCC2)C1`?
Answer: IC50 (cells): 3.05 µM; IC50 (Ebolavirus): 1 to 10 µM; selectivity ratio (in vitro [1]): 13; selectivity ratio (in vitro [2]): 13

Question: Which IC50 (cells) does the source give for `CC(=O)N(C)C1(c2ccccc2)CCN(CCC[C@]2(c3ccc(Cl)c(Cl)c3)CCCN(C(=O)c3ccccc3)C2)CC1` [OSANETANT] here?
Answer: Its IC50 is 9.65 µM.

Question: And the selectivity ratio (in vitro [1])?
Answer: Its selectivity ratio is 52.

Question: And the selectivity ratio (in vitro [2])?
Answer: The selectivity ratio was 52.

Question: For `CNC1CCC(N(Cc2cccc(-c3ccncc3)c2)C(=O)c2sc3c(F)ccc(F)c3c2Cl)CC1` (stereo unspecified), which IC50 (cells) is on record?
Answer: Its IC50 is 7.67 µM.

Question: What about the selectivity ratio (in vitro [1]) of the same molecule?
Answer: Its selectivity ratio is 65.

Question: And the selectivity ratio (in vitro [2])?
Answer: The selectivity ratio was 65.

Question: With `CCC1=C[C@@H]2CN(C1)Cc1c([nH]c3ccccc13)[C@@](C(=O)OC)(c1cc3c(cc1OC)N(C)[C@H]1[C@@](O)(C(=O)OC)[C@H](OC(C)=O)[C@]4(CC)C=CCN5CC[C@]31[C@@H]54)C2` [VINORELBINE] as the molecule, how does the IC50 (cells) read?
Answer: The IC50 was 0.066 µM.

Question: For `Cc1[nH]c2c(CN3CC(CO)C(CN4CCCC4)C3)cccc2c1C` (stereo unspecified), which IC50 (cells) is on record?
Answer: The IC50 was 6.09 µM.

Question: And the IC50 (Ebolavirus)?
Answer: The IC50 was 1 to 10 µM.

Question: And the selectivity ratio (in vitro [1])?
Answer: Its selectivity ratio is 82.

Question: And the selectivity ratio (in vitro [2])?
Answer: The selectivity ratio was 82.

Question: For `COc1cc2nc(N3CCCN(C)CC3)nc(NC3CCN(Cc4ccccc4)CC3)c2cc1OC`, which IC50 (cells) is on record?
Answer: Its IC50 is 0.966 µM.

Question: What about the IC50 (Ebolavirus) of the same molecule?
Answer: Its IC50 is 1 to 10 µM.

Question: What about the selectivity ratio (in vitro [1]) of the same molecule?
Answer: The selectivity ratio was 45.

Question: And the selectivity ratio (in vitro [2])?
Answer: The selectivity ratio was 45.

Question: With `CCN(CC)CCCN(c1ccccc1)C1Cc2ccccc2C1` [APRINDINE] as the molecule, how does the IC50 (cells) read?
Answer: The IC50 was 7.69 µM.

Question: Which inhibition [3] does the source give for `CC(C)(C)c1ccc(C(=O)CCCN2CCC(OC(c3ccccc3)c3ccccc3)CC2)cc1` here?
Answer: The inhibition was “Active”.

Question: With `CN1CCN(CCCN2c3ccccc3Sc3ccc(S(=O)(=O)N(C)C)cc32)CC1` [THIOPROPERAZINE] as the molecule, how does the IC50 (cells) read?
Answer: The IC50 was 4.32 µM.

Question: Which IC50 (cells) does the source give for `CC[C@]1(O)C[C@H]2CN(CCc3c([nH]c4ccccc34)[C@@](C(=O)OC)(c3cc4c(cc3OC)N(C=O)[C@H]3[C@@](O)(C(=O)OC)[C@H](OC(C)=O)[C@]5(CC)C=CCN6CC[C@]43[C@@H]65)C2)C1` [VINCRISTINE] here?
Answer: Its IC50 is 0.141 µM.

Question: Which IC50 (cells) does the source give for `CN(C)c1ccccc1CN1CCCN(Cc2ccccc2N(C)C)C1c1ccncc1` here?
Answer: The IC50 was 6.83 µM.

Question: And the inhibition [4]?
Answer: The inhibition was “Active”.

Question: What about the inhibition [3] of the same molecule?
Answer: The inhibition was “Active”.

Question: And the selectivity ratio (in vitro [1])?
Answer: The selectivity ratio was 73.

Question: And the selectivity ratio (in vitro [2])?
Answer: Its selectivity ratio is 73.

Question: With `CCCCc1oc2ccc(NS(C)(=O)=O)cc2c1C(=O)c1ccc(OCCCN(CCCC)CCCC)cc1` [DRONEDARONE] as the molecule, how does the IC50 (cells) read?
Answer: Its IC50 is 2.2 µM.

Question: What does the source list for `Cc1ccc(CN2CCCN(C)C3(CCN(C)CC3)C2)cc1C`?
Answer: IC50 (cells): 6.83 µM; IC50 (Ebolavirus): 1 to 10 µM; selectivity ratio (in vitro [1]): 73; selectivity ratio (in vitro [2]): 73

Question: For `CN1[C@@H]2CC[C@H]1C[C@@H](OC1c3ccccc3CCc3ccccc31)C2` [DEPTROPINE], which IC50 (cells) is on record?
Answer: Its IC50 is 6.58 µM.

Question: What about the inhibition [3] of the same molecule?
Answer: The inhibition was “Active”.

Question: And the selectivity ratio (in vitro [1])?
Answer: The selectivity ratio was 76.

Question: And the selectivity ratio (in vitro [2])?
Answer: Its selectivity ratio is 76.

Question: Which IC50 (cells) does the source give for `COCC(=O)O[C@]1(CCN(C)CCCc2nc3ccccc3[nH]2)CCc2cc(F)ccc2[C@@H]1C(C)C` [MIBEFRADIL] here?
Answer: Its IC50 is 4.32 µM.

Question: For `CC[C@]1(O)C[C@@H]2CN(CCc3c([nH]c4ccccc34)[C@@](C(=O)OC)(c3cc4c(cc3OC)N(C)[C@H]3[C@@](O)(C(=O)OC)[C@H](OC(C)=O)[C@]5(CC)C=CCN6CC[C@]43[C@@H]65)C2)C1` [VINBLASTINE], which EC50 (cells) is on record?
Answer: The EC50 was 0.048 µM.

Question: For `CC/C(=C(\c1ccc(O)cc1)c1ccc(OCCNC)cc1)c1ccccc1` [ENDOXIFEN], which IC50 (cells) is on record?
Answer: Its IC50 is 3.05 µM.

Question: And the selectivity ratio (in vitro [1])?
Answer: Its selectivity ratio is 164.

Question: What about the selectivity ratio (in vitro [2]) of the same molecule?
Answer: The selectivity ratio was 164.

Question: For `CCC(=C(c1ccc(O)cc1)c1ccc(OCCN(C)C)cc1)c1ccccc1`, which IC50 (cells) is on record?
Answer: Its IC50 is 1.96 µM.

Question: And the selectivity ratio (in vitro [1])?
Answer: The selectivity ratio was 123.

Question: And the selectivity ratio (in vitro [2])?
Answer: The selectivity ratio was 123.

Question: With `COc1ccc2cc1Oc1ccc(cc1)C[C@H]1c3c(cc4c(c3Oc3cc5c(cc3OC)CCN(C)[C@@H]5C2)OCO4)CCN1C` [CEPHARANTHINE] as the molecule, how does the IC50 (cells) read?
Answer: Its IC50 is 1.53 µM.
